The values below come from patent US20250129083A1, “IMIDAZOTETRAZINE COMPOUNDS AND TREATMENT OF TMZ-RESISTANT CANCERS” (THE BOARD OF TRUSTEES OF THE UNIVERSITY OF ILLINOIS, priority 2022, published 2025).

Like-named read-outs stand apart in the source and are kept apart here.

The test system of data set [1] is genomic DNA of A172 cells. The experiment in a line: Quantitation of O6-guanine DNA adducts in cells, A172. It is filed as cell-based. The note with it: MGMT-negative; LC-MS/MS. As to the method: (§1) Importantly, because CPZ was designed to release a different active species than TMZ, the alkylation pattern in a cellular context is likely different. Therefore, to assess if alkylation still occurs with CPZ, a DNA alkylation assay was performed. GL261 cells were treated with 100, 300, or 500 μM TMZ or CPZ for 8 hours after which the cells were harvested and genomic DNA was extracted and subsequently hydrolyzed to constituent deoxyribonucleosides. LC-MS/MS analysis was employed to quantify the amount of O^6-methyl-2′-deoxyguanosine (O^6-Me-dG) or O^6-propargylated-2′-O^6-deoxyguanosine (O^6-Prop-dG) in each sample.
(§2) Quantitation of O^6-guanine DNA Adducts in Cells. GL261, A172, or D54 cells were plated at 1×10^6 c/w in a 6-well plate before they were treated with compound at the indicated concentration (1% final concentration DMSO). After incubation for the indicated time, the cells were harvested and pelleted. Genomic DNA was extracted using the DNeasy Blood & Tissue Kit (Qiagen, ID: 69504). DNA was then precipitated using the following procedure: 1/10 v/v […] sodium acetate (pH 5.2) and 2.5× v/v ethanol was added to each sample which was then kept at −80° C. for 1 h. […] Hydrolyzed samples were then submitted for LC-MS/MS quantitation along with a synthetic standard. Samples were analyzed with a 5500 QTRAP LC/MS/MS system (AB Sciex) with a 1200 series HPLC system (Agilent).

A further data set concerns GL261 cells. The experiment in a line: Cell viability assay (Alamar Blue, 7 days), GL261. It is filed as cell-based. The note with it: Mus musculus, GL261, 168 h. As to the method:
(§3) Cell Culture and Reagents. All cell lines were grown in a 37° C., 5% CO2, humidified environment, in media containing 1% penicillin/streptomycin. Stable cell line generation of GL261 MGMT+ was purchased from Creative Biogene. Cell culture conditions are as follows: cell lines U87, T98G, and RKO were grown in EMEM with 10% FBS. D54, GL261, GL261 MGMT+, and U118MG cell lines were grown in DMEM with 10% FBS. HCT116 cells were grown in RMPI with 10% FBS. D341 Med cells were grown in EMEM with 20% FBS. Temozolomide (TMZ) was purchased from AK Scientific. TMZ analogues were synthesized as described below. Compounds were dissolved in DMSO (1% final concentration, Fisher Chemical) for cell culture studies.
(§4) Cell Viability Assays. Cells were harvested, seeded in a 96-well plate and allowed to adhere. After three hours, compound was added to each well in DMSO (1% final concentration). Cells were incubated for seven days (unless otherwise noted) before viability was assessed by the Alamar Blue assay. Raptinal (20 μM) was used as a dead control.
Plated 1500 c/w for GL261; 600 c/w for U87; 600 c/w for U118MG; 1500 c/w for GL261 MGMT+ Incubated ovn and added 1 μL of compound in DMSO the next day. Incubated over 7 days; added Alamar Blue to assess cell viability and used 10 μM Raptinal as dead control. Error is SEM, n=3.
(Resazurin is reduced to fluorescent resorufin, in cell work by metabolically active cells.)

The test system of data set [2] is RKO colon cancer cell line. In words: Cell viability assay (Alamar Blue, 7 days), RKO. It is filed as cell-based. The note with it: 168 h. As to the method:
as §3, §4

In the next data set the test system is genomic DNA of D54 cells. The experiment in a line: Quantitation of O6-guanine DNA adducts in cells, D54. As to conditions: MGMT-negative; LC-MS/MS. It is filed as cell-based. Here is the method:
as §1, §2

For a further data set, the system named is T98G GBM cell line. The experiment in a line: Cell viability assay (Alamar Blue, 7 days), T98G. It is filed as cell-based, human. As to conditions: Homo sapiens, T98G, 168 h. As to the method:
as §3, §4

Data set [3] in a line: Assessment of hematological toxicity. It is filed as in vivo. From the text:
Arguably the most important question when designing an alkylating agent able to evade MGMT-mediated resistance is the resultant effect on hematological toxicity. MGMT operates as a systemic protectant against alkylating xenobiotics. […] Therefore, an MGMT-independent alkylating agent like CPZ could render off-target cells vulnerable to irreparable DNA alkylation and result in a similar degree of toxicity. We hypothesized that the increased BBB permeability of CPZ would divert enough of the drug to the brain such that it could be tolerated at a therapeutically useful dose. The hematological effects of a single dose of TMZ or CPZ were compared head-to-head in vivo. Mice were treated with 125 mg/kg TMZ or CPZ intravenously; this dose was selected because 125 mg/kg TMZ is known to induce nonlethal toxicity in mice. After 7 days, the mice were sacrificed and complete blood counts were obtained. […] Additionally, the maximum tolerated dose (MTD) of CPZ was determined to be 66 mg/kg when dosed intraperitoneally (IP), once-per-day over five days. This matches the reported MTD of TMZ at the same schedule (˜66 mg/kg).
Assessment of Hematological Toxicity. Male CD-1 IGS mice (n≥3 mice/group) were administered a single dose of 125 mg/kg compound intravenously. Imidazotetrazines were formulated with DMSO, Tween-20, and 30% (w/v) SBE-PCD in sterile water immediately prior to injection. […]

Data set [4] has as its system E. coli WP2 uvrA pKM101 strain. In words: Ames test, E. coli WP2 uvrA pKM101. It is filed as cell-based. The note with it: 30 μM. As to the method: (§5) Next, we measured the mutagenicity of CPZ versus TMZ. TMZ and other DNA methylating chemotherapies are known mutagens, inducing G:C→A:T mutations due to erroneous recognition of O^6-methylguanine. […] CPZ and TMZ (at 30 μM) were also assessed in the E. coli WP2 uvrA pKM101 strain, which is considered one of the more sensitive Ames tester strains available.

For data set [5], the system named is S. typhimurium TA100 strain. The experiment in a line: Ames test, TA100. As to conditions: 30 μM; for Ames test revertant (mutated) colonies, TA100: 5 days, no S9 activation. It is filed as cell-based. As to the method: as §5
Ames Test. Compounds were assessed at the indicated concentrations in the TA100 tester strain using the Muta-ChromoPlate 96-well microplate version of the Ames test (Environmental Bio-Detection Products, Prod. No. 5051) according to manufacturer's instructions. In brief, TA100 S. typhimurium bacteria were grown overnight and plated with compound, growth medium, and indicator (no S9 activation) in 96 well plates. Bacteria were incubated for 5 days before the number of wells per 96 well plate containing revertant colonies were identified colorimetrically.
A general note: The Ames test uses bacterial strains that need an amino acid and regain growth without it when mutated back.

Data set [6] can be described thus: Maximum tolerated dose / tolerability in mice. It is filed as in vivo. The note with it: in vivo, 66 mg/kg, once per day over 5 days.
[7] abbreviates: 7 day dose-response, read-out: IC50, GL261 (parental).
Where [8] appears, read: MGMT (−) MMR (+), 7 days, 1500 c/w, SEM, n=3, read-out: Activity, GL261.
The mark [9] stands for this setting: 7 days, read-out: Activity, RKO.
Where [10] appears, read: MGMT (+)/MMR (−), 7 day, read-out: IC50, RKO.
The mark [11] stands for this setting: MGMT (+) MMR (+), read-out: Activity, T98G.
Where [12] appears, read: female, C57BL/6, mouse, ip, intraperitoneal, read-out: MTD, I.P.

Turning to `C#CCn1nnc2c(Cl)ncn2c1=O` [CPZ, 8-chloro-3-(prop-2-yn-1-yl)imidazo[5,1-d][1,2,3,5]tetrazin-4(3H)-one], the “O6-dG alkylation adducts, A172” value in data set [1] is on record as “did not harbor measurable levels of the propargyl adduct”. The IC50 in the data set on GL261 cells (setting [7]) stood at 28 µM; in the data set on GL261 cells (setting [8]), 28 ± 3 µM; in [2] (setting [9]) it was 10 ± 1 µM; in [2] (setting [10]), 10 µM; in the data set on T98G GBM cell line (setting [11]), 27 ± 6 µM. In the data set on genomic DNA of D54 cells, the “O6-dG alkylation adducts, D54” value is listed as “did not harbor measurable levels of the propargyl adduct”. Further, the “Other hematological symptoms such as thrombocytopenia” value in data set [3] (mouse, in vivo, iv, 125 mg/kg) is reported as “did not give rise to other hematological symptoms such as thrombocytopenia”. For the same compound, the “Ames test revertant colonies, E. coli WP2 uvrA pKM101” value in [4] is recorded as “no revertant colonies”. The “Mutagenicity, E. coli WP2 uvrA pKM101” value in data set [4] is reported as “non-mutagenic”. The “Mutagenicity, TA100” value in data set [5] is “non-mutagenic”. For the same compound, the “Ames test revertant (mutated) colonies, TA100” value in data set [5] is “no revertant colonies”. For the same compound, in [6] (setting [12]), the maximum tolerated dose (MTD) (commonly the highest dose tested that stayed within the study's limit of toxicity) at 5 days was found to be 66 mg/kg.

On to `Cn1nnc2c(C(N)=O)ncn2c1=O` [TMZ, temozolomide, reference compound], for which the “O6-dG alkylation adducts, A172” value in data set [1] is on record as “dose-dependent increase in methyl adducts”. Also, the IC50 was 120 µM with GL261 cells (setting [7]); 120 ± 62 µM with GL261 cells (setting [8]); greater than 1000 µM in data set [2] (setting [9]); greater than 1000 µM in data set [2] (setting [10]); 570 ± 20 µM with T98G GBM cell line (setting [11]); greater than 550 µM in the data set with T98G GBM cell line (MGMT (+), Alamar Blue, error SEM, n ≥ 3, read-out: Seven-day IC50, T98G). Moreover, in the data set with genomic DNA of D54 cells, the “O6-dG alkylation adducts, D54” value is on record as “dose-dependent increase in methyl adducts”. Also, the “White blood cell, lymphocyte, and neutrophil counts” value in data set [3] (mice, single 125 mg/kg IV dose, 7 days) is “depletions in white blood cells, lymphocytes, and neutrophils”. In addition, the “Ames test revertant colonies, E. coli WP2 uvrA pKM101” value in data set [4] is recorded as 95/96. In addition, the “Mutagenicity, E. coli WP2 uvrA pKM101” value in [4] is listed as “mutagenic”. Moreover, the “Mutagenicity, TA100” value in [5] is listed as “mutagenic”. For the same compound, in data set [5], the “Ames test revertant (mutated) colonies, TA100” value was 35/96. The maximum tolerated dose (MTD) at 5 days was 66 mg/kg in data set [6] (setting [12]) and 66 mg/kg in data set [6] (mouse, intravenous, read-out: MTD, I.V.).
